{"source": "patent US9096591B2", "about": "“Tetracyclic compounds” (Medivation Technologies, Inc., priority 2007, dated 2015)", "key": {"[1]": {"target": "T1, human recombinant histamine H1 receptor (Homo sapiens, UniProt P35367)", "T1 construct": "expressed in transfected cells; host or cells: CHO cells", "T1 sequence (P35367 whole entry)": "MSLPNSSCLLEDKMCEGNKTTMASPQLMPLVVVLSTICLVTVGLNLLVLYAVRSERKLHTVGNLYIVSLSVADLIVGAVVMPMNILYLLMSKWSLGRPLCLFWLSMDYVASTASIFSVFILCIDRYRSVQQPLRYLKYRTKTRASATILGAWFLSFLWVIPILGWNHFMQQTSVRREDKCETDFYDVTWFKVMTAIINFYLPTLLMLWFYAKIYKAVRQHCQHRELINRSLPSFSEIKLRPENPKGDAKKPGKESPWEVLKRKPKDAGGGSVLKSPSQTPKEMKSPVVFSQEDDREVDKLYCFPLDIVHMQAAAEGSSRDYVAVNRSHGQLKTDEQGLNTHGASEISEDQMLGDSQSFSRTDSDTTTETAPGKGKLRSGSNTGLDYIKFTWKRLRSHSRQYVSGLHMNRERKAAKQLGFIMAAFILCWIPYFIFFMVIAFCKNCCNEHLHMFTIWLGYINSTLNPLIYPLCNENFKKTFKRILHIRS", "experiment": "Histamine H1 radioligand binding ([3H]Pyrilamine)", "settings": "for inhibition at 1 µM: compounds screened at 1 μM, read-out: Inhibition of ligand binding, Hist. H1 (percent inhibition of specific binding)", "outline": "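CHO-expressed receptor in modified Tris-HCl buffer (50 mM, pH 7.4; 2 mM MgCl2, 100 mM NaCl, 250 mM sucrose); bound ligand measured after filtration and washing.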"}, "[2]": {"target": "T2, human recombinant adrenergic α2A receptor (Homo sapiens, UniProt P08913)", "T2 construct": "expressed in transfected cells; host or cells: insect Sf9 cells", "T2 sequence (P08913 1-465)": "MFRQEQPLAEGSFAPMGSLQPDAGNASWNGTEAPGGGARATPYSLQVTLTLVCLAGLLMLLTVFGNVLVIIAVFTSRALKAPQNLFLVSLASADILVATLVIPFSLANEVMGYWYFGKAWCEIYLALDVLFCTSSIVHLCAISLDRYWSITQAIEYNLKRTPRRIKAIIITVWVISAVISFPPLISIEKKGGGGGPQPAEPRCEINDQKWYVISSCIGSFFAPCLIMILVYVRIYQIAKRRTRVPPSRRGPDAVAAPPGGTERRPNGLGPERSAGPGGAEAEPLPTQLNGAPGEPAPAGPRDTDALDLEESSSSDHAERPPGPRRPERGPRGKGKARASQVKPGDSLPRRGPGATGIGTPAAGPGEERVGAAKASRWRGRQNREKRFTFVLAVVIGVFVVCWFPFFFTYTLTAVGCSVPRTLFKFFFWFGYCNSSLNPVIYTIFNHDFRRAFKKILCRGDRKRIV", "experiment": "Adrenergic α2A radioligand binding ([3H]MK-912)", "settings": "for inhibition at 1 µM: compounds screened at 1 μM, read-out: Inhibition of ligand binding, Adren. alpha2A (percent inhibition of specific binding)", "outline": "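Membranes from Sf9 cells expressing the receptor were incubated with 1 nM [3H]MK-912 for 60 minutes at 25° C in 50 mM Tris-HCl pH 7.4, 12.5 mM MgCl2, 2 mM EDTA. 10 μM WB-4101 defined non-specific binding. Values are percent inhibition of specific bound radioactivity after filtration.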"}, "[3]": {"target": "T3, human recombinant serotonin (5-Hydroxytryptamine) 5-HT2A receptor (Homo sapiens, UniProt P28223)", "T3 construct": "expressed in transfected cells; host or cells: CHO-K1 cells", "T3 sequence (P28223 whole entry)": "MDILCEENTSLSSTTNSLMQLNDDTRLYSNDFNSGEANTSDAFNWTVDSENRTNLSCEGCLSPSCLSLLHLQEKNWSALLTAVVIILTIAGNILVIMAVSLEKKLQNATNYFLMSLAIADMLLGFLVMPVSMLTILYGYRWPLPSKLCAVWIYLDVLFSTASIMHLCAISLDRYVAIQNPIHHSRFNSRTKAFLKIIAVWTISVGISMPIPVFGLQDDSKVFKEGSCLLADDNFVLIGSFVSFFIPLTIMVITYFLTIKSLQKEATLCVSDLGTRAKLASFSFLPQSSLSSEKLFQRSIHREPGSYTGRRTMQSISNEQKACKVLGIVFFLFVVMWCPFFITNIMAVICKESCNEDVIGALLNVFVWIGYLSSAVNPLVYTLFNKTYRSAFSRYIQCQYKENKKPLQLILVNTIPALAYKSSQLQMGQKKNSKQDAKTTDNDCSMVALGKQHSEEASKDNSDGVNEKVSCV", "experiment": "Serotonin 5-HT2A radioligand binding ([3H]Ketanserin)", "settings": "for inhibition at 1 µM: read-out: Inhibition of ligand binding, Ser. 5-HT2A (percent inhibition of specific binding)", "protocol": "(§1) Compounds of the invention were incubated with 0.5 nM [^3H]Ketanserin for 60 minutes at 25° C. Non-specific binding was estimated in the presence of 1 μM Mianserin. Receptor proteins were filtered and washed, the filters were then counted to determine [^3H]Ketanserin specifically bound. […] Biochemical assay results are presented as the percent inhibition of specific binding in Table 6."}, "[4]": {"target": "T4, human recombinant serotonin (5-Hydroxytryptamine) 5-HT2C receptor (Homo sapiens, UniProt P28335)", "T4 construct": "expressed in transfected cells; host or cells: CHO-K1 cells", "T4 sequence (P28335 33-458)": "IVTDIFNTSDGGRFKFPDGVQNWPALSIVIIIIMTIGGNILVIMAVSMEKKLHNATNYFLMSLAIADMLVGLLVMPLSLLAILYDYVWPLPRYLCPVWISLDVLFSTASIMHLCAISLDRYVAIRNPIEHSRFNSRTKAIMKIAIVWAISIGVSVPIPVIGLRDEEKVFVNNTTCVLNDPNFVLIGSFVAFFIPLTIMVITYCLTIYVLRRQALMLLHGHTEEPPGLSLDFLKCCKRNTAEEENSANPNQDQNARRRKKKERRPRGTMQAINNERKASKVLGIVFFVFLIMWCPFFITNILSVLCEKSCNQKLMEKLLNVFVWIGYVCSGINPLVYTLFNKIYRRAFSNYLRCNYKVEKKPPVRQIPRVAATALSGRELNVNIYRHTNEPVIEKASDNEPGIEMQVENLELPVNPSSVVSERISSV", "experiment": "Serotonin 5-HT2C radioligand binding ([3H]Mesulergine)", "settings": "for inhibition at 1 µM: compounds screened at 1 μM, read-out: Inhibition of ligand binding, Ser. 5-HT2C (percent inhibition of specific binding)", "protocol": "as §1, with “1” for “0.5”, “[^3H]Mesulergine” for “[^3H]Ketanserin”"}, "[5]": {"target": "T5, human recombinant serotonin (5-Hydroxytryptamine) 5-HT6 receptor (Homo sapiens, UniProt P50406)", "T5 construct": "expressed in transfected cells; host or cells: human HeLa cells", "T5 sequence (P50406 whole entry)": "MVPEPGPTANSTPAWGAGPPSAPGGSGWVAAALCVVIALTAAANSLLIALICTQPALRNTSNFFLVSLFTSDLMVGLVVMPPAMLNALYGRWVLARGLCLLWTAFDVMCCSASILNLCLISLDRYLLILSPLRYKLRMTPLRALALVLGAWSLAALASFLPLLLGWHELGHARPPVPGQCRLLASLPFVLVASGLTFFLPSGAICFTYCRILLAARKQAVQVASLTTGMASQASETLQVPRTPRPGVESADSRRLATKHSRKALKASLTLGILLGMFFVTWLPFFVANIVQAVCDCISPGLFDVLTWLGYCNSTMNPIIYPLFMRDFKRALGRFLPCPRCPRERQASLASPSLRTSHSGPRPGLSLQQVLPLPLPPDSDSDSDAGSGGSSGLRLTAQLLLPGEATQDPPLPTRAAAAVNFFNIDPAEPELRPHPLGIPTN", "experiment": "Serotonin 5-HT6 radioligand binding ([3H]LSD)", "settings": "for inhibition at 1 µM: compounds screened at 1 μM, read-out: Inhibition of ligand binding, Ser. 5-HT6 (percent inhibition of specific binding)", "text": "Receptor proteins were filtered and washed, the filters were then counted to determine [3H]LSD specifically bound. […] Biochemical assay results are presented as the percent inhibition of specific binding in Table 6."}}}
{"compound": "CN1CCc2c(c3cc(Br)ccc3n2CC(=O)N2CCCCC2)C1", "note": "[Compound 516, 2-(8-bromo-2-methyl-3,4-dihydro-1H-pyrido[4,3-b]indol-5(2H)-yl)-1-(piperidin-1-yl)ethanone]", "values": [{"measurement": "inhibition at 1 µM", "setting": "[1]", "result": 49, "unit": "%"}, {"measurement": "inhibition at 1 µM", "setting": "[2]", "result": 3, "unit": "%"}, {"measurement": "inhibition at 1 µM", "setting": "[3]", "result": 6, "unit": "%"}, {"measurement": "inhibition at 1 µM", "setting": "[4]", "result": 58, "unit": "%"}, {"measurement": "inhibition at 1 µM", "setting": "[5]", "result": 9, "unit": "%"}]}
{"compound": "Cc1ccc2c(c1)c1c(n2CCc2nc(-c3ccccc3)cs2)CCN(C)C1", "note": "[Compound C1-5]", "values": [{"measurement": "inhibition at 1 µM", "setting": "[1]", "result": 100, "unit": "%"}, {"measurement": "inhibition at 1 µM", "setting": "[2]", "result": 92, "unit": "%"}, {"measurement": "inhibition at 1 µM", "setting": "[3]", "result": 97, "unit": "%"}, {"measurement": "inhibition at 1 µM", "setting": "[4]", "result": 93, "unit": "%"}, {"measurement": "inhibition at 1 µM", "setting": "[5]", "result": 101, "unit": "%"}]}
{"compound": "COc1ccc2c(c1)c1c(n2CCc2nc(-c3ccccc3)cs2)CCN(C)C1", "note": "[Compound C1-6]", "values": [{"measurement": "inhibition at 1 µM", "setting": "[1]", "result": 104, "unit": "%"}, {"measurement": "inhibition at 1 µM", "setting": "[2]", "result": 55, "unit": "%"}, {"measurement": "inhibition at 1 µM", "setting": "[3]", "result": 84, "unit": "%"}, {"measurement": "inhibition at 1 µM", "setting": "[4]", "result": 90, "unit": "%"}, {"measurement": "inhibition at 1 µM", "setting": "[5]", "result": 84, "unit": "%"}]}
{"compound": "CN1CCc2c(c3cc(F)ccc3n2CCc2nc(-c3ccccc3)cs2)C1", "note": "[Compound C1-7]", "values": [{"measurement": "inhibition at 1 µM", "setting": "[1]", "result": 99, "unit": "%"}, {"measurement": "inhibition at 1 µM", "setting": "[2]", "result": 88, "unit": "%"}, {"measurement": "inhibition at 1 µM", "setting": "[3]", "result": 96, "unit": "%"}, {"measurement": "inhibition at 1 µM", "setting": "[4]", "result": 91, "unit": "%"}, {"measurement": "inhibition at 1 µM", "setting": "[5]", "result": 91, "unit": "%"}]}
{"compound": "CN1CCc2c(c3ccccc3n2CCc2noc(-c3ccccc3)n2)C1", "note": "[Compound C4-1]", "values": [{"measurement": "inhibition at 1 µM", "setting": "[1]", "result": 93, "unit": "%"}, {"measurement": "inhibition at 1 µM", "setting": "[2]", "result": 95, "unit": "%"}, {"measurement": "inhibition at 1 µM", "setting": "[3]", "result": 96, "unit": "%"}, {"measurement": "inhibition at 1 µM", "setting": "[4]", "result": 91, "unit": "%"}, {"measurement": "inhibition at 1 µM", "setting": "[5]", "result": 51, "unit": "%"}]}
{"compound": "Cc1ccc2c(c1)c1c(n2CCc2noc(-c3ccccc3)n2)CCN(C)C1", "note": "[Compound C4-4]", "values": [{"measurement": "inhibition at 1 µM", "setting": "[1]", "result": 101, "unit": "%"}, {"measurement": "inhibition at 1 µM", "setting": "[2]", "result": 96, "unit": "%"}, {"measurement": "inhibition at 1 µM", "setting": "[3]", "result": 100, "unit": "%"}, {"measurement": "inhibition at 1 µM", "setting": "[4]", "result": 98, "unit": "%"}, {"measurement": "inhibition at 1 µM", "setting": "[5]", "result": 103, "unit": "%"}]}
{"compound": "CN1CCc2c(c3cc(Cl)ccc3n2CCc2noc(-c3ccccc3)n2)C1", "note": "[Compound C4-6]", "values": [{"measurement": "inhibition at 1 µM", "setting": "[1]", "result": 100, "unit": "%"}, {"measurement": "inhibition at 1 µM", "setting": "[2]", "result": 96, "unit": "%"}, {"measurement": "inhibition at 1 µM", "setting": "[3]", "result": 99, "unit": "%"}, {"measurement": "inhibition at 1 µM", "setting": "[4]", "result": 94, "unit": "%"}, {"measurement": "inhibition at 1 µM", "setting": "[5]", "result": 105, "unit": "%"}]}
{"compound": "Cc1ccc2c(c1)c1c(n2CCc2ccc(C)nc2)CC[N+](C)([O-])C1", "note": "(stereo not shown) [Example 93, 2,8-dimethyl-5-(2-(6-methylpyridin-3-yl)ethyl)-2,3,4,5-tetrahydro-1H-pyrido[4,3-b]indole 2-oxide]", "values": [{"measurement": "Hist. H1", "setting": "[1]; inhibition profile", "result": 68}, {"measurement": "Adren. alpha2A", "setting": "[2]; inhibition profile", "result": 1}, {"measurement": "Ser. 5-HT2A", "setting": "[3]; inhibition profile", "result": 4}, {"measurement": "Ser. 5-HT2C", "setting": "[4]; inhibition profile", "result": 9}, {"measurement": "Ser. 5-HT6", "setting": "[5]; inhibition profile", "result": 11}]}
